Test results taken from paper PMC8715119, “Second-generation non-hematopoietic erythropoietin-derived peptide for neuroprotection” (Redox Biology, 2021).

Legend:
[1] = system: mouse ischemic model; test: Middle cerebral artery occlusion (MCAO) and reperfusion, TTC staining of brain; type: in vivo; details: MCAO 90 min, 24 h reperfusion, intravenous reEPO 2000 IU/kg (n = 4)
Text: The protocol of this experiment was approved by the Animal Care and Use Committee of the Keimyung University School of Medicine. After 1 week of acclimatization, mice were anesthetized with 3% isoflurane in a mixture of 70% N2O and 30% O2, and the anesthesia was maintained with 1.5–2.0% isoflurane. After the neck skin incision, the bifurcation of the common carotid artery was exposed. The external carotid artery was ligated, and the internal carotid artery was carefully isolated from the vagus nerve. A microvascular clip was placed across the right common carotid artery. Through the external carotid stump, a 7–0 surgical nylon monofilament with silicon coat was advanced into the right internal carotid artery up to the origin of the middle cerebral artery. […] During the surgery, rectal temperature was monitored and maintained at 37 ± 0.5 °C with a feedback-controlled heating pad (CMA 150, Stockholm, Sweden). […]
The brain was rapidly dissected out and coronally sliced into 2-mm-thick sections. […] The infarct volumes of the TTC-stained brain sections were imaged with a digital camera and analyzed. Using NIH ImageJ software (NIH, USA), the intensity of TTC in MCAO- and no-MCAO-performed hemispheres were digitally measured, and the ratio (MCAO versus non-MCAO) was presented as a percentage.

[2] = system: HT-22 cells; test: ROS level by H2DCFDA after hypoxia and re-oxygenation; type: cell-based, mouse; details: reEPO 0.5 IU/ml, ML1-h3 1 ng/ml, n = 12
Description: HT-22 cells (kindly provided by Prof. Gil-Saeng Jeong in Keimyung University), an immortalized mouse hippocampal cell line, were cultured at 37°C and 5% CO2 in Dulbecco's modified eagle medium (DMEM, Invitrogen, USA) supplemented with 10% FBS and 1% penicillin/streptomycin at 37°C and 5% CO2.
The cellular ROS level was measured using 2′,7′-dichlorodihydrofluorescein diacetate (H2DCFDA) (#D399, Invitrogen, USA). The cells were incubated with 5 μM H2DCFDA in PBS for 30 min, washed with PBS, and then resuspended in the medium for 2 h. After treatment of H2O2 without or with reEPO, or peptide, we monitored the oxidative stress by measuring the fluorescence intensities of H2DCFDA by using excitation and emission wavelengths of 485 nm and 535 nm, respectively.
The HT-22 cells were seeded onto 96-well or 6-well plates. The next day, HT-22 cells were placed inside a sealed air-tight container consisting of an anaeropack (Mitsubishi Gas Company, Tokyo, Japan), which can induce a hypoxic atmosphere by absorbing oxygen and generating carbon dioxide. The cells were maintained in the hypoxic condition at 37°C for 18 h and re-oxygenated for 3 h at 37°C and 5% CO2. Subsequently, the cells were treated with reEPO or the peptides for 19 h before viability analysis.

[3] = system: undifferentiated PC12 cells; test: Cell proliferation (MTS) under low serum; type: cell-based, rat; details: 0.5% fetal bovine serum, 48 h, reEPO 10 IU/ml, peptides 10 ng/ml, n = 5, Fig. 4c
Description: PC12 cells (#CRL-1721, ATCC, USA), a rat pheochromocytoma cell line derived from the adrenal medulla (#CRL-1721, ATCC, USA), were seeded on a dish, which was coated by poly L-lysine (0.01%; Sigma Chemical Co., USA), and grown in RPMI 1640 medium (#11875093, Gibco, USA), supplemented with 10% heat-inactivated horse serum (#26050088, Gibco, USA), 5% fetal bovine serum (FBS) (#SH30919.03, Hyclone, USA), and 1% penicillin/streptomycin at 37°C with 5% CO2. […]
Cell viability was evaluated by 3-[(4,5-dimethylthiazol-2-yl)-5,3-carboxymethoxyphenyl]-2-(4-sulfophenyl)-2H tetrazolium, inner salt (MTS) reduction assay (CellTiter 96 Aqueous One Solution Cell Proliferation Assay, Promega, Madison, WI, USA). […] The intracellular soluble formazan produced by cellular reduction of the MTS was determined by recording the absorbance at 490 nm using a microplate reader (VersaMax, Molecular Devices, USA). Cell proliferation was also evaluated by the MTS assay. […] The next day, the initial cell number was counted; after 48 h, under low FBS concentration (0.5%), with or without reEPO and peptides, cell number was measured by the MTS assay.

[4] = system: Bax; test: Immunoblot of Bax after hypoxia and re-oxygenation; type: cell-based, mouse; details: HT-22 cells; reEPO 0.5 IU/ml, ML1-h3 1 ng/ml; normalized by β-Actin; n = 6
Description: PC12 or HT-22 cells were lysed in 100 mM Tris-Cl (pH 6.8) with 4% SDS. The lysates were loaded onto sodium dodecyl sulfate-polyacrylamide gel electrophoresis (SDS-PAGE) (8–10%), and the proteins were transferred onto the nitrocellulose membrane. The membrane was blocked with 0.1% TBST and 5% non-fat dry milk at 25°C for 30 min. Primary antibodies were diluted in 0.1% TBST and 3% bovine serum albumin (BSA). The primary antibodies included anti-pJAK2 (#3776, Cell Signaling Technology, USA), anti-JAK2 (#3230, Cell Signaling Technology, USA), anti-pSTAT5 (#9351, Cell Signaling Technology, USA), anti-STAT5 ([…], Cell Signaling Technology, USA), anti-pAKT (#9271, Cell Signaling Technology, USA), anti-AKT (#9272, Cell Signaling Technology, USA), anti-pERK (#9101, Cell Signaling Technology, USA) anti-ERK (#9102, Cell Signaling Technology, USA), anti-EPOR (#sc-365662, Santa Cruz Biotechnology, USA), anti-β-Actin (Santa Cruz Biotechnology, USA), anti-Bax (Santa Cruz Biotechnology, USA), anti-cleaved Casp3 (Cell Signaling Technology, USA), and anti-cleaved Parp1 (Cell Signaling Technology, USA).
The HT-22 cells were seeded onto 96-well or 6-well plates. The next day, HT-22 cells were placed inside a sealed air-tight container consisting of an anaeropack (Mitsubishi Gas Company, Tokyo, Japan), which can induce a hypoxic atmosphere by absorbing oxygen and generating carbon dioxide. […]

Substance: reEPO: Recombinant human EPO (Epoetin-α, CJ HealthCare Corporation)
- TTC staining in MCAO-performed versus contralateral side (brain injury) [1]: inhibited extinction of TTC-staining in MCAO-performed side
- ROS level induced by H/R [2]: decreased ROS level induced by H/R
- Cell proliferation (cell number) [3]: significantly increased the proliferation
- Level of Bax under H/R [4]: efficiently reduced the levels of Bax
